Each structure is given as a SMILES string.

We go through one compound from patent US9018381B2, “Chemical compounds” (AstraZeneca AB, priority 2010, dated 2015).

For assay [1], the target named is Bcl-2 (Homo sapiens (Human), UniProt P10415). Nature of the assay: Bcl-2 FP assay (fluorescence polarization competitive binding). To be noted: c-terminal 6×HIS tagged Bcl-2 (aa 1-204), FITC-Bim BH-3 peptide tracer. An excerpt: (§1) Bcl-xL and Bcl-2 FP binding affinity of compound(s) of Formulae (I), (I-a), (I-b), (I-c), (I-d) and/or (I-e) may be determined using a variety of known methods. One such assay is a sensitive and quantitative in vitro binding assay using fluorescence polarization (“FP”) described by Wang, J.-L.; Zhang, Z-J.; Choksi, S.; Sjam. S.; Lu, Z.; Croce, C. M.; Alnemri, E. S.; Komgold, R.; Huang, Z. Cell permeable Bcl-2 binding peptides: a chemical approach to apoptosis induction in tumor cells. Cancer Res. 2000, 60, 1498-1502).
Sequence of Bcl-2 (P10415 1-204): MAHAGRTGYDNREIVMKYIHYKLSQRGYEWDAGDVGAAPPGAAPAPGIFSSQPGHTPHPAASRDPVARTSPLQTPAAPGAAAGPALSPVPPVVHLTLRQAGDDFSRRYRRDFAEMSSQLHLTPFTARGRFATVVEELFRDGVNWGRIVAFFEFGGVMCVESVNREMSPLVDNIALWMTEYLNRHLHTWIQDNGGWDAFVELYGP
(§2) Additionally, the binding affinity of compound(s) of Formulae (I), (I-a), (I-b), (I-c), (I-d) and/or (I-e) to Bcl-2 protein in vitro was determined by a competitive binding assay based on fluorescence polarization. For example, fluorescence polarization (“FP”) assays may be developed using a c-terminal 6×HIS tagged Bcl-2 (aa 1-204) and a C-terminal 6×HIS tagged Bcl-XL (aa 1-209). […] Dilutions of either Bcl-2 (1.3 nM) or Bcl-XL (0.8 nM) may be added to serial dilutions of antagonist and incubated for one hour prior to the addition of 2 nM of fluorescent peptide tracer (Anaspec, Fremont, Calif.) in the assay buffer. Final assay buffer conditions may be 20 mM HEPES, pH 7.5, 1 mM DTT, 0.005% Tween-20 and 50 mM NaCl. Samples may be read after 20-minute incubation. Fluorescence polarization values may be plotted as a function of the antagonist concentration.

Assay [2] concerns the target Bcl-XL (Homo sapiens (Human), UniProt Q07817). Nature of the assay: Bcl-XL FP assay (fluorescence polarization competitive binding). The settings on record: C-terminal 6×HIS tagged Bcl-XL (aa 1-209), FITC-Bim BH-3 peptide tracer.
Text: as §1, §2

Sequence of Bcl-XL (Q07817 1-209): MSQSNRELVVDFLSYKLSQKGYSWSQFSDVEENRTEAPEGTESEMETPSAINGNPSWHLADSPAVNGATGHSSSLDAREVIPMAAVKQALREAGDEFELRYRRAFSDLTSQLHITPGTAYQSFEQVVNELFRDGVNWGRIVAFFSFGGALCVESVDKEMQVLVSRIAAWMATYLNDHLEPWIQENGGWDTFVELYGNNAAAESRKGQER

`O=C(NS(=O)(=O)c1ccc(N[C@H](CCN2CCN(C[C@H](O)CF)CC2)CSc2ccccc2)c(S(=O)(=O)C(F)(F)F)c1)c1ccc(N2CCC([C@@H](O)c3ccccc3-c3ccc(Cl)cc3)CC2)cc1` (single isomer, unassigned) [Example 6]: the IC50 in assay [1] was found to be 1 nM; in assay [2] it was 2 nM.
